Experimental data reported in patent US20060058274A1, “Use of an aldosterone receptor antagonist to improve cognitive function” (Pharmacia Corporation, priority 2000, published 2006).

Experiments:
[1] = test system: Dahl salt-sensitive (DS) rat; settings: low, non-antihypertensive doses, cited from earlier work; for memory function (passive avoidance): aged DS rats on low salt diet
[2] = target: T1, central mineralocorticoid receptors (Homo sapiens, UniProt P08235); settings: cited from earlier work
T1 sequence (P08235 1-984): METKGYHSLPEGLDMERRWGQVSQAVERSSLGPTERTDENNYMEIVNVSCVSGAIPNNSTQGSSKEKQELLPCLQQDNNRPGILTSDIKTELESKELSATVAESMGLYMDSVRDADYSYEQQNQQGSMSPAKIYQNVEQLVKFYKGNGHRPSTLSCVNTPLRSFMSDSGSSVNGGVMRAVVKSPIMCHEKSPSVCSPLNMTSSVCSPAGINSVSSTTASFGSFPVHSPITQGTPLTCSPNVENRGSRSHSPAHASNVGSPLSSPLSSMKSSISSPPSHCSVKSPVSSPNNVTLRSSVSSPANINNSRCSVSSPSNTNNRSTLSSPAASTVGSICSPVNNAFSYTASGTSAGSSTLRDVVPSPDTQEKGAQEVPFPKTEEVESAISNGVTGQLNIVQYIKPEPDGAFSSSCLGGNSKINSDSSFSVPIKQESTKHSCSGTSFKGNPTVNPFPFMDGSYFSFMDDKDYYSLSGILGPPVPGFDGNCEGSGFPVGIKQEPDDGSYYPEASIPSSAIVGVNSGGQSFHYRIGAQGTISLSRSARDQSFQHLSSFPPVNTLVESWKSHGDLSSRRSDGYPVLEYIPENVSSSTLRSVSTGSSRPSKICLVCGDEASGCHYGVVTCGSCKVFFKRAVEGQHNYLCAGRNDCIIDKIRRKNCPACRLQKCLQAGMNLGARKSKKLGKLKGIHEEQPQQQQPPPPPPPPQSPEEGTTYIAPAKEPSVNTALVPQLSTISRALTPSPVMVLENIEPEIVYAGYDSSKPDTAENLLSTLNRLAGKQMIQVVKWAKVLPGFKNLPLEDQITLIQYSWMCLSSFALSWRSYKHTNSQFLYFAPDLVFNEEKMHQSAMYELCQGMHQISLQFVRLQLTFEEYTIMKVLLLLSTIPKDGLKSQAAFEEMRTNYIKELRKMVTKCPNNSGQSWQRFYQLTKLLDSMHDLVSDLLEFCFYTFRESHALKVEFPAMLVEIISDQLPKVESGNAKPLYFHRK

male Wistar rats = settings: cited from earlier work; for corticosterone-induced increase in behavioral reactivity: pretreatment, intracerebroventricular injection
glucocorticoid receptors = target: T2, glucocorticoid receptors (Homo sapiens, UniProt P04150); settings: cited from earlier work
T2 sequence (P04150 1-777): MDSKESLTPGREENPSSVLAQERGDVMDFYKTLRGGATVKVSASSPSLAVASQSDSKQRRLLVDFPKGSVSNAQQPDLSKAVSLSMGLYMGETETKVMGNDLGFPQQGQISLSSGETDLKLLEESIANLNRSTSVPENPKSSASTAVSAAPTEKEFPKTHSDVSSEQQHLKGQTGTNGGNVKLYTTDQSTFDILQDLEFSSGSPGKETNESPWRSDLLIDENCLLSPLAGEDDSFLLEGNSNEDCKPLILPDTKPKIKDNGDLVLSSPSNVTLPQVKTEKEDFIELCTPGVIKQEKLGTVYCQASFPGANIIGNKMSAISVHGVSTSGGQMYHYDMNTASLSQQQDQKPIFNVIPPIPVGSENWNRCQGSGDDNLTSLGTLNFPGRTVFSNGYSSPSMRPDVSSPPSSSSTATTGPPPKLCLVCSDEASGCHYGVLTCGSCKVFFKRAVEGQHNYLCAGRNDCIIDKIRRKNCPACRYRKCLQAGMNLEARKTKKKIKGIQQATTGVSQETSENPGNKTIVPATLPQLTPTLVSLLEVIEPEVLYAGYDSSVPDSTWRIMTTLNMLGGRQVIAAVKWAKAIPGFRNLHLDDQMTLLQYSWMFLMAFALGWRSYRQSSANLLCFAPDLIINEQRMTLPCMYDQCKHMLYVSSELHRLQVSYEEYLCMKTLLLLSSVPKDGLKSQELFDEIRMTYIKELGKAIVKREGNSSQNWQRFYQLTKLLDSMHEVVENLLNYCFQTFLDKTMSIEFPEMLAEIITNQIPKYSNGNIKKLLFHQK

mice = settings: cited from earlier work
[3] = test system: patients with HF or hypertension; assay: Phase II eplerenone HF and hypertension trials; type: in vivo, human; settings: 25 to 50 mg QD
[4] = test system: patients with mild-to-moderate hypertension; assay: Phase II dose-ranging study of eplerenone in mild-to-moderate hypertension; type: in vivo, human; settings: for adjusted mean change in ABPM DBP from baseline to final visit / adjusted mean change in ABPM SBP from baseline to final visit: ambulatory blood pressure monitoring; for adjusted mean change in Cuff DBP from baseline to final visit / adjusted mean change in Cuff SBP from baseline to final visit: eight-week study
Excerpt: The adjusted mean changes (in mmHg) in diastolic blood pressure (DBP) and systolic blood pressure (SBP) from baseline to final visit are shown in Table 1A.

[5] = Dissolution rate of unformulated solid state forms of eplerenone; type: physicochemical; settings: temperatures below the enantiotropic transition temperature
[6] = Physical stability of solid state forms of eplerenone; type: physicochemical; settings: temperatures below the enantiotropic transition temperature

Question: What does the source list for `Cc1ccnc2c1nc(C1CC1)n2Cc1ccc(-c2ccccc2C(=O)O)cc1` [Compound E4177]?
Answer: memory function (passive avoidance) [1]: slightly improved; capillary densities in the CA1 regions [1]: not influenced; hippocampal CA1 cells [1]: restored slightly

Question: With `C[C@]12C[C@H](O)[C@H]3[C@@H](CCC4=CC(=O)CC[C@@]43C)[C@@H]1CC[C@@H]2C(=O)CO` [Corticosterone] as the compound, how does the “affinity for central mineralocorticoid receptors” value [2] read?
Answer: high affinity

Question: And the “adrenalectomy-increased behavioral reactivity towards the object” value (male Wistar rats; 50 micrograms/kg s.c.)?
Answer: blocked

Question: What about the “affinity for glucocorticoid receptors relative to mineralocorticoid receptors” value (glucocorticoid receptors) of the same compound?
Answer: tenfold lower affinity

Question: Which results are given for `COC(=O)[C@@H]1CC2=CC(=O)CC[C@]2(C)[C@@]23O[C@@H]2C[C@@]2(C)[C@@H](CC[C@@]24CCC(=O)O4)[C@H]13` [Eplerenone, Pregn-4-ene-7,21-dicarboxylic acid, 9,11-epoxy-17-hydroxy-3-oxo-,γ-lactone, methyl ester, (7α,11α,17β)-]?
Answer: effect on the ACE-inhibited mice (mice; mouse, in vivo): had no effect; retention-sparing effects of piracetam (mice; mouse, in vivo): prevented; diuretic or hemodynamic effect [3]: neither diuretic nor hemodynamic; plasma BNP levels [3]: lowered; plasma renin and aldosterone levels [3]: increased; adjusted mean change in ABPM DBP from baseline to final visit ([4]; 25 mg BID): −4.1 mmHg; adjusted mean change in ABPM SBP from baseline to final visit ([4]; 25 mg BID): −7.5 mmHg; adjusted mean change in Cuff DBP from baseline to final visit ([4]; 25 mg BID): −4.4 mmHg; adjusted mean change in Cuff SBP from baseline to final visit ([4]; 25 mg BID): −8.1 mmHg; adjusted mean change in ABPM DBP from baseline to final visit ([4]; 50 mg BID): −6.6 mmHg; adjusted mean change in ABPM SBP from baseline to final visit ([4]; 50 mg BID): −11.6 mmHg; adjusted mean change in Cuff DBP from baseline to final visit ([4]; 50 mg BID): −7.8 mmHg; adjusted mean change in Cuff SBP from baseline to final visit ([4]; 50 mg BID): −11.7 mmHg; adjusted mean change in Cuff DBP from baseline to final visit ([4]; 50 mg QD): −4.5 mmHg; adjusted mean change in Cuff DBP from baseline to final visit ([4]; 100 mg QD): −4.4 mmHg; adjusted mean change in Cuff SBP from baseline to final visit ([4]; 100 mg QD): −7.9 mmHg; frequency of transient hyperkalemia (i.e., $5.4 mmol/L) ([4]; 200 mg BID and 400 mg QD treatment groups): increased frequency; adjusted mean change in ABPM DBP from baseline to final visit ([4]; 200 mg BID): −9.0 mmHg; adjusted mean change in ABPM SBP from baseline to final visit ([4]; 200 mg BID): −16.1 mmHg; adjusted mean change in Cuff DBP from baseline to final visit ([4]; 200 mg BID): −8.9 mmHg; adjusted mean change in Cuff SBP from baseline to final visit ([4]; 200 mg BID): −14.8 mmHg; adjusted mean change in Cuff DBP from baseline to final visit ([4]; 400 mg QD): −8.7 mmHg; adjusted mean change in Cuff SBP from baseline to final visit ([4]; 400 mg QD): −15.0 mmHg; plasma renin activity ([4]; increasing doses, FIG. 1-1): increased levels; serum aldosterone ([4]; increasing doses, FIG. 1-1): increased levels; systolic blood pressure ([4]; increasing doses, FIG. 1-2): decreased; diastolic blood pressure ([4]; increasing doses, FIG. 1-3): decreased; tolerability ([4]; total daily doses 50, 100 or 400 mg): well tolerated

Question: Which “dissolution rate, higher than unformulated Form L” value [5] does the source give for `COC(=O)[C@@H]1CC2=CC(=O)CC[C@]2(C)[C@@]23O[C@@H]2C[C@@]2(C)[C@@H](CC[C@@]24CCC(=O)O4)[C@H]13` [Form H, eplerenone] here?
Answer: approximately 30%

Question: With `COC(=O)[C@@H]1CC2=CC(=O)CC[C@]2(C)[C@@]23O[C@@H]2C[C@@]2(C)[C@@H](CC[C@@]24CCC(=O)O4)[C@H]13` [Form L, eplerenone] as the compound, how does the “physical stability relative to Form H” value [6] read?
Answer: greater physical stability

Question: For `CCC[C@@H]1CC2=CC(=O)CC[C@]2(C)[C@H]2CC[C@@]3(C)[C@@H](CC[C@@]3(O)CCC(=O)[O-])[C@H]12.[K+]` [RU28318], which “corticosterone-induced increase in behavioral reactivity” value (male Wistar rats) is on record?
Answer: prevented

Question: With `CC#C[C@]1(O)CC[C@H]2[C@@H]3CCC4=CC(=O)CCC4=C3[C@@H](c3ccc(N(C)C)cc3)C[C@@]21C` [RU38486] as the compound, how does the “corticosterone-induced increase in behavioral reactivity” value (male Wistar rats) read?
Answer: not effective

Question: With `CCOC(=O)[C@H](CCc1ccccc1)N[C@H]1CCCN2CCC[C@@H](C(=O)O)N2C1=O` [cilazapril] as the compound, how does the “memory function (passive avoidance)” value [1] read?
Answer: dose-dependently improved

Question: What about the “capillary densities in the CA1 regions” value [1] of the same compound?
Answer: significant increases

Question: And the “hippocampal CA1 cells” value [1]?
Answer: significant increases

Question: With `NC(=O)CN1CCCC1=O` [piracetam] as the compound, how does the retention performance (mice; pretreatment, amnesia induced by electro-shock) read?
Answer: significantly improved
